Results as given in patent US20030139368A1, “Antithrombotic and/or anti-inflammatory composition combining purine activity and NSAID activity” (priority 2000, published 2003).

Experiments:
[1] = tested on: rat platelets; assay: Aggregation of rat platelets (platelet rich plasma) stimulated by ADP, aggregometer; format: cell-based; conditions: for aggregation: without AMP 80%
Description: Blood was collected on a citrate buffer from rats that had not received any treatment or from humans who had not received any treatment during the two weeks preceding collection of the blood sample. Platelet rich plasma was prepared by centrifugation using known methods. Measurements were performed using an aggregometer marketed under the name “Chrono-log”. The measurements were processed and digitized using an “MP30 Biopac” data acquisition system.

[2] = tested on: human platelets; assay: Response of human platelets stimulated by collagen; format: cell-based; conditions: collagen 0.19 mg/ml; substance 0.6 mM
Description: Platelet rich plasma was prepared by centrifugation using known methods.
Measurements were performed using an aggregometer marketed under the name “Chrono-log”. The measurements were processed and digitized using an “MP30 Biopac” data acquisition system.
We studied the response of human platelets stimulated by collagen (0.19 mg/ml, Biodata). Two parameters were measured: the latency time (elapsed time between bringing the platelets into contact with collagen and the beginning of aggregation) and the maximum amplitude of aggregation.

[3] = tested on: gastric mucosa; assay: Gastric toxicity, macroscopic and histologic observation of the stomach; format: in vivo; conditions: 100 mg/kg by gavage, fasted rats, 3 hours
Description: This test was performed on Sprague Dawley rats (IFFA CREDO, l'Arbresle, France). The rats were in a fasting state the evening before the experiment (but drinking water was available ad libitum). […] Three hours later, the rats were sacrificed by a lethal dose of pentobarbital. The stomach was removed, opened along the greater curvature and rinsed with water. The gastric mucosa was photographed and digitized using a Macintosh G3 computer equipped with a program (NIH, USA) and a video card (Scion, USA). The stomach was fixed with buffered formalin and then processed with the conventional histological techniques for paraffin inclusion. The sections (5 μm) were then stained with hematoxylin-eosin-safranin.
Two observations were performed: macroscopic (after the stomach was collected, under the microscope) and histologic.

[4] = tested on: male mice; assay: Anti-inflammatory effect: carrageenan-induced inflammation in air pocket, leukocyte count in exudate; format: in vivo; conditions: for Number of leukocytes: 100 mg/kg/day by gastric gavage on days 3, 4, 5, exudate 4 hours after carrageenan, controls 9.57 ± 0.48; for % inhibition: 100 mg/kg/day by gastric gavage, versus controls
Description: The test was performed on male mice weighing 20 g. This protocol lasted 5 days. On day 1, we injected 3 cm^3 of air in the dorsal part via the subcutaneous route. The resultant air pockets were reinflated on days 2, 3 and 4 with 1 cm^3 of air. […] We induced inflammation by injection of 1 ml of a 2% (weight/volume) suspension of carrageenan in PBS buffer into the air pocket. After 4 hours, the pockets were washed with 2 ml of PBS and the exudates were collected. Aliquot parts were diluted to 1:1 with a 0.01% solution of methylene blue in a PBS buffer. We then performed counting of the cells (principally neutrophils) whose accumulation was induced by the inflammation.

Nc1ncnc2c1ncn2[C@@H]1O[C@H](COP(=O)(O)O)[C@@H](O)[C@H]1O [AMP, (5′-O-phosphate)adenosine]
aggregation ([1]; ADP 20 μM in the presence of 2.5 mM AMP): 40% | aggregation ([1]; ADP 20 μM in the presence of 5.0 mM AMP): 20% | effect on aggregation already induced ([1]; ADP 20 μM, AMP 10 mM added 30 seconds later): immediate disaggregation | latency time multiplied by (factor) [2]: circa 1.5 | maximum response (maximum amplitude of aggregation) to collagen [2]: not modified

O=C(Nc1ncnc2c1ncn2[C@@H]1O[C@H](CO)[C@@H](O)[C@H]1O)c1ccccc1O [Example 3, adenosine N-salicylyl]
damage to the gastric wall (macroscopic and histologic) [3]: did not cause damage to the gastric wall | Number of leukocytes [4]: 3.80 ± 0.80 millions/ml | % inhibition [4]: 60%

Nc1ncnc2c1ncn2[C@@H]1O[C@H](CO)[C@@H](O)[C@H]1O [adenosine]
aggregation compared with AMP (5 mM) ([1]; ADP 20 μM, adenosine 4 mM in place of AMP 5 mM): Comparable results

CC(=O)Oc1ccccc1C(=O)O [aspirin, acetylsalicylic acid]
Number of leukocytes [4]: 6.40 ± 0.77 millions/ml | % inhibition [4]: 33%

O=C([O-])c1ccccc1O.[Na+] [sodium salicylate]
inhibition of platelet aggregation ([1]; sodium salicylate 7.5 mM added to plasma, then ADP 20 μM): No significant inhibition
